Data on three molecules can be found in article PMC11199504, “New hemisynthetic derivatives of sphaeropsidin phytotoxins triggering severe endoplasmic reticulum swelling in cancer cells” (Scientific Reports, 2024).

Data set [1] deals with caspase-like activity of the proteasome (Homo sapiens, UniProt P28072). Briefly: Cellular proteasomal caspase-like activity. It is filed as cell-based. The protocol:
The chemotrypsin-like, trypsin-like and caspase-like activities of the proteasome were evaluated in cells with the G8660, G8861 and G8761 kits respectively according to the manufacturer’s instructions (Promega, USA). Briefly, the assays are based on the use of short amino-acid sequences coupled with luciferin and that can be specifically cleaved by each catalytic unit of the proteasomal complex. For this purpose, cells were seeded in 96 well plates 24 h before their treatment with 1 (5 µM), 13 (1 µM) for 6 h or with the positive control MG132 (1 µM) for 24 h. At the end of the treatments, cells were washed three times with PBS and permeabilized with digitonin (0.5 mg/mL; 50 µL per well) under shaking for 10 min. Then, 50 µL of a mixture of the substrate of interest and luciferase were added for 15 min under slow shaking. Luminescence levels quantified with the Active-Glo LR-100 luminometer (DSLabs, Suisse) were normalized according the number of viable cells evaluated in parallel in the same conditions by means of MTT assay.

Data set [2] has as its system SKMEL-28 melanoma and U373 glioblastoma cells. As to the kind of experiment: Morphological evaluation by phase contrast microscopy / videomicroscopy. It is filed as cell-based, human. On the procedure:
For the morphological evaluation of the effects induced by compounds 1 and 13, 6 × 10^4 cells were seeded on glass coverslips placed in 6 well plates a minimum 24 h before their treatment. At the end of the incubation period with the treatment, coverslips were rinsed once in PBS buffer and directly mounted on slides to allow visualization of the cell with an Axio.Imager.M2 microscope (G X40 and G X100).

Data set [3] relates to U373. As to the kind of experiment: MTT colorimetric assay, U373. The following applies: Homo sapiens, U373 MG; 72 h treatment; mean ± SEM; resistant to apoptosis; read-out: IC50 determined by MTT assays, U373. It is filed as cell-based. The source says: (§1) Cancer cell lines were obtained from either the European Collection of Cell Cultures (ECACC; Salisbury, UK) or the American Type Culture Collection (ATCC; Manassas, VA). The two glioma cell lines were the U373 (ECACC code 08061901) and Hs683 (ATCC HTB-138) cell lines. The carcinoma cell lines were the A549 non-small cell carcinoma cell line (ATCC code CCL 185) and the MCF-7 mammary breast carcinoma cell line (ATCC code HTB-22). The melanoma cell lines were the mouse B16F10 cells (ATCC code CRL-6475) and the human SKMEL-28 cells (ATCC code HTB-72). The ovarian cancer cell line A2780 and its cisplatin-resistant subline A2780cis were obtained from Sigma-Aldrich (St. Louis, MO, USA). Colon cancer HCT116 cells were obtained from ATCC (CCL-247) and the oxaliplatin-resistant subline HCT116/OxR established in the W. Berger lab[59]. The HeLa cell derivative KB-3-1 and the colchicine-selected, highly ABCB1-overexpressing subline KB-C-1 were generously donated by Dr. D. W. Shen, Bethesda, MD. RKOp53wt colon cancer cells together with the RKOp53KO (homozygous knock-out) subline[60] were generously provided by Dr. Vogelstein from John Hopkins University, Baltimore. The correct origin of all cell models was confirmed by STR during performance of the experiments. All cell lines were cultured in RPMI1640 culture medium supplemented with 10% heat-inactivated fetal bovine serum, 2% L-glutamine (0.6 mg/mL), 2% penicillin/streptomycin (200 IU/mL and 200 μg/mL) and 0.1 mg/mL gentamicin.
(§2) The MTT (3-(4,5-dimethylthiazol-2-yl)-2,5-diphenyl tetrazolium bromide) colorimetric assay has been conducted as described previously. Briefly, cells were seeded 24 h before their treatment with each compound for a period of 72 h. The concentrations tested ranged from 10 nM to 100 µM. Each assay was conducted in sextuplicates. The number of independent experiments is mentioned in the legend of the tables.

On the set-up of data set [4]: method as in PMID 33016969. The following applies: cited from earlier work.
Data set [5] has as its system A2780. As to the kind of experiment: MTT assay, A2780 (parental sensitive). It is filed as cell-based. The following applies: Homo sapiens, A2780, 72 h, read-out: IC50 determined by MTT assays, A2780.
Source text: as §1, §2
SI Table 1: IC50 determined by MTT assays. Mean concentration (± standard deviation) in µM required to
reduce the viability of cells by 50% after a 72 h treatment relative to the control.
Parental sensitive models Drug-resistant models
A general note: Tetrazolium dyes change colour on reduction, which living cells bring about.

In data set [6] the test system is SK-MEL-28 human melanoma and U373 glioblastoma cells. Briefly: ER swelling / vacuole origin (CellLight ER-GFP, brightfield, TEM). The settings on record: SK-MEL-28 and U373 cells. The format is cell-based. The source says: To decipher the origin of vacuoles, fluorescent probes staining different cellular compartments were used: the lysosomal Red DND-99 LysoTracker®, the glibenclamide Red ER tracker®, the green FM MitoTracker® that were all purchased from Lifes Technologies (Invitrogen, Belgium) and used according to manufacturer’s instructions. The CellLight ER-GFP (Thermofisher, Belgium) staining of the ER is based on the transfection of a plasmid coding for a fusion protein made of GFP fused to the ER signal sequence of calreticulin and the KDEL ER retention signal. Briefly, 6 × 10^4 cells were seeded on glass coverslips in 6 well plates. After a minimum of 24 h, cells were treated or not with the compounds of interest. Note that concentration and duration of the treatment were determined separately for each compound prior to the experiment on the basis of the apparition of marked morphological changes in phase contrast microscopy. Sixteen hours before the end of the experiment, 4 µL/well of the reagent were added to allow transfection and expression of the GFP-fused protein by the cells. Coverslips were then washed twice in PBS and mounted on slides without fixation step to take captions with the Axio.Imager.M2 microscope (Carl Zeiss, Belgium). To evaluate the cellular distribution of 13, the Axio.Imager.M2 was specifically equipped with an M340L4 excitation source (Thorlabs) and the pseudoconfocal Zeiss ZEN deconvolution system kindly provided for demo by Carl Zeiss (Belgium) to allow direct visualization of the compound 13 itself thanks to its intrinsic fluorescent properties.
For TEM, cells were fixed with glutaraldehyde 2.5% (EM grade, Electron Microscopy Sciences, EMS) at 4 °C overnight, washed tree times in cacodylate buffer (pH 7.4) and postfixed 1 h at room temperature in 1% OsO4, (EMS), 1.5% potassium ferrocyanide (Sigma-Aldrich) in 0.15 M cacodylate buffer. This was immediately followed by a second incubation in 1% OsO4 for 1 h at room temperature. After washing in distilled water, samples were stained with 1% uranyl acetate (EMS) and serially dehydrated in increasing ethanol concentrations. Samples were then embedded in epoxy resin (Agar 100 resin, Agar Scientific Ltd) and left to polymerize for 2 days at 60 °C. Ultrathin sections (50–70 nm thick) were collected with a Leica UC6 ultra-microtome on formvar-carbon-coated copper grids and further stained with uranyl acetate and lead citrate by standard procedures. Observations were made on a Tecnai 10 transmission electron microscope (FEI) and images were captured with a Veleta camera and processed with SIS iTEM software (Olympus).

Chain of caspase-like activity of the proteasome (P28072 whole entry): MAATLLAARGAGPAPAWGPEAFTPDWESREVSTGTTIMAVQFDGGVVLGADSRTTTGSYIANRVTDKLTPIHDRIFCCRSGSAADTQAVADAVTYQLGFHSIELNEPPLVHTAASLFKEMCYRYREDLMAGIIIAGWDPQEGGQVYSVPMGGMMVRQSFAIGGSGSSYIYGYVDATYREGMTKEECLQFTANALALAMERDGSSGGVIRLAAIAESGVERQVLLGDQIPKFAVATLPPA

`C=C[C@]1(C)C=C2C(=O)[C@@]3(O)OC(=O)[C@@]4(CCCC(C)(C)[C@H]34)[C@@]2(O)CC1` [Compound 1, sphaeropsidin A, reference compound]: in data set [1] (1 at 5 µM, 6 h), the “effect on caspase-like proteasomal activity” value is given as “stimulate caspase-like activity”. For the same molecule, the “time to cellular shrinkage” value in data set [2] (SKMEL-28 and U373) was at most 6 h. The values for the half-maximal inhibitory concentration (IC50) in data set [3] and in data set [5] were 2130 ± 170 nM and 2400 ± 500 nM, respectively. The “stability in physiological medium” value in data set [4] is on record as “instability”.
Take `CC1(C=CCCCc2ccc3ccc4cccc5ccc2c3c45)C=C2C(=O)C3(O)OC(=O)C4(CCCC(C)(C)C34)C2(O)CC1` (stereo not shown) [Compound 13]: the “ER swelling / ER-derived vacuolization” value in data set [6] is “severe swelling of the ER”. Besides, the inhibition at 1 µM in data set [1] (13 at 1 µM, 6 h of treatment, both SKMEL-28 and U373) was above 60%. Further, in data set [2] (SKMEL-28 and U373 respectively), the “time to severe vacuolization” value was 15 to 24 h. The figures for the IC50 in data set [3] and in data set [5] were 570 ± 80 nM and 1600 ± 20 nM, respectively.
Regarding `CC1(C=CCCCc2ccc3ccc4cccc5ccc2c3c45)C=C2C(O)C3(O)OC(=O)C4(CCCC(C)(C)C34)C2(O)CC1` (stereo not shown) [Compound 16], in data set [6], the “ER swelling / ER-derived vacuolization” value was “severe ER-swelling”. In addition, the IC50 in data set [3] was 8880 ± 190 nM; in data set [5], 7700 ± 900 nM.

One may read the IC50 as the concentration that gives 50% inhibition. One may read the inhibition as how much of the control response was suppressed. High values mean strong suppression, low ones little suppression.
